What was measured:
Format in all cases: in vivo
[1] = tested on: Spring Barley “Harrington”; assay: Test 1B glasshouse assay, post-emergence herbicidal activity against cereal crops
Procedure: (§1) Biological Example 1B tests the herbicidal activity of“technical” compounds (i.e. compounds not previously formulated before the test), as the herbicides under test.
(§2) An “instant formulation”, known as the “IF50”, containing 50 g/liter (i.e. 5% w/v) of the “technical” (i.e. unformulated) active ingredient (i.e. the herbicide under test), is prepared by dissolving the active ingredient in a mixture of organic solvents and emulsifier, details of which are provided in the Table below.
(§3) This IF50 is mixed with a small, variable amount of acetone to aid dissolution, before addition of a 0.5% v/v aqueous solution of the adjuvant Adigor™ (an adjuvant containing rapeseed oil methyl ester, ethoxylated alcohols, and a mixture of heavy aromatic hydrocarbons, e.g. available from Syngenta), as the aqueous diluent, to form an aqueous spray solution which contains a predetermined concentration of the active ingredient (which varies depending on the application rate of the active ingredient to the plants) and 0.5% v/v of the adjuvant Adigor™. This aqueous spray solution is suitable for spraying onto plants.
(§4) Seeds of a variety of test species are sown in standard soil in pots. After cultivation for 14 days under controlled conditions in a glasshouse (at 22/16° C., day/night; 16 hours light; 65% humidity), the plants are sprayed post-emergence with the above-mentioned aqueous spray solution containing inter alia the “technical” active ingredient (i.e. the herbicide under test) and the adjuvant Adigor™.
(§5) The test plants are then grown on under controlled conditions in the glasshouse (at 22/16° C., day/night; 16 hours light; 65% humidity) and are watered twice daily. 14 days after application of the test herbicide, the test is evaluated visually for percentage phytotoxicity to the plant (where 100%=total damage to plant; 0%=no damage to plant).
(§6) More specifically, post-emergence herbicidal activity (phytotoxicity) data, on certain tested grassy monocotyledonous weeds (and/or plants of the type Gramineae) and cereal crops in the glasshouse, are measured 14 days after application of the herbicide (14 DAA), typically for inter alia one or more of the following application rates: • (a) a post-emergence application rate of 60 g/ha of the test herbicide with or without 50 g/ha of cloquintocet-mexyl safener, and • (b) a post-emergence application rate of 90 g/ha of the test herbicide with 50 g/ha of cloquintocet-mexyl safener, and • (c) a post-emergence application rate of 120 g/ha of the test herbicide with 50 g/ha of cloquintocet-mexyl safener.
(§7) The cloquintocet-mexyl, when used, is present in the formulation containing the herbicide under test dissolved in acetone plus IF50.
(§8) The range of herbicide application rates tested sometimes includes application rates other than those shown above, and the rates can vary depending on the herbicide under test.
(§9) Herbicidal activity (phytotoxicity) is evaluated visually, and an assessed percentage phytotoxicity score is given for each herbicidal application on each plant species (with 100%=total damage to plant; 0%=no damage to plant; the assessment is recorded in increments of 1%). Two replicates are made for each experiment, and the mean herbicidal activity (phytotoxicity) data is reported.

Winter Wheat “Hereward” = assay: as above
Procedure: as §1, §2, §3, §4, §5, §6, §7, §8, §9

Winter Barley “Suzuka” = assay: as above
Procedure: as §1, §2, §3, §4, §5, §6, §7, §8, §9

[2] = tested on: Alopecurus myosuroides (ALOMY); assay: Test 1B glasshouse assay, post-emergence herbicidal activity against grassy weeds; conditions: 14 DAA
Procedure: as §1, §2, §3, §4, §5, §6, §7, §8, §9
(§10) For compounds A34, A98, A99, A87, A100, A101, A89, A120, A120A, A120B, A23, A127, A128, A89, A112 and A113 the tested weeds were as follows: Avena fatua (AVEFA), Lolium multiflorum (LOLMU), Setaria viridis (SETVI), Poa annua (POAAN), Alopecurus myosuroides (ALOMY). All five of these are grassy monocotyledonous weeds. Except for SETVI, these are all “cool-season” grassy monocotyledonous weeds.

Avena fatua (AVEFA) = assay: as above; conditions: 14 DAA
Procedure: as §1, §2, §3, §4, §5, §6, §7, §8, §9, §10

Poa annua (POAAN) = assay: as above; conditions: 14 DAA
Procedure: as §1, §2, §3, §4, §5, §6, §7, §8, §9, §10

Setaria viridis (SETVI) = assay: as above; conditions: 14 DAA
Procedure: as §1, §2, §3, §4, §5, §6, §7, §8, §9, §10

[3] = tested on: Lolium multiflorum (LOLMU); assay: as above; conditions: 14 DAA
Procedure: as §1, §2, §3, §4, §5, §6, §7, §8, §9, §10

Spring Wheat “Freya” = assay: Test 1B glasshouse assay, post-emergence herbicidal activity against cereal crops
[4] = herbicide 30 g/ha, cloquintocet-mexyl 50 g/ha
[5] = herbicide 45 g/ha, cloquintocet-mexyl 50 g/ha
[6] = herbicide 60 g/ha, cloquintocet-mexyl 0 g/ha
[7] = herbicide 60 g/ha, cloquintocet-mexyl 50 g/ha
[8] = 30 g/ha herbicide, 50 g/ha cloquintocet-mexyl
[9] = 45 g/ha herbicide, 50 g/ha cloquintocet-mexyl
[10] = 60 g/ha herbicide, 0 g/ha cloquintocet-mexyl
[11] = 60 g/ha herbicide, 50 g/ha cloquintocet-mexyl

Row | Compound | Percentage Phytotoxicity Spring Barley “Harrington” [1, 4] [%] | Percentage Phytotoxicity Spring Barley “Harrington” [1, 5] [%] | Percentage Phytotoxicity Spring Barley “Harrington” [1, 6] [%] | Percentage Phytotoxicity Spring Barley “Harrington” [1, 7] [%] | Percentage Phytotoxicity Winter Wheat “Hereward” (Winter Wheat “Hereward”; [4]) [%] | Percentage Phytotoxicity Winter Wheat “Hereward” (Winter Wheat “Hereward”; [5]) [%] | Percentage Phytotoxicity Winter Wheat “Hereward” (Winter Wheat “Hereward”; [6]) [%] | Percentage Phytotoxicity Winter Wheat “Hereward” (Winter Wheat “Hereward”; [7]) [%] | Percentage Phytotoxicity Winter Barley “Suzuka” (Winter Barley “Suzuka”; [4]) [%] | Percentage Phytotoxicity Winter Barley “Suzuka” (Winter Barley “Suzuka”; [5]) [%] | Percentage Phytotoxicity Winter Barley “Suzuka” (Winter Barley “Suzuka”; [6]) [%] | Percentage Phytotoxicity Winter Barley “Suzuka” (Winter Barley “Suzuka”; [7]) [%] | Post-emergence herbicidal activity, percentage phytotoxicity, ALOMY [2, 8] [%] | Post-emergence herbicidal activity, percentage phytotoxicity, ALOMY [2, 9] [%] | Post-emergence herbicidal activity, percentage phytotoxicity, ALOMY [2, 10] [%] | Post-emergence herbicidal activity, percentage phytotoxicity, ALOMY [2, 11] [%] | Post-emergence herbicidal activity, percentage phytotoxicity, AVEFA (Avena fatua (AVEFA); [8]) [%] | Post-emergence herbicidal activity, percentage phytotoxicity, AVEFA (Avena fatua (AVEFA); [9]) [%] | Post-emergence herbicidal activity, percentage phytotoxicity, AVEFA (Avena fatua (AVEFA); [10]) [%] | Post-emergence herbicidal activity, percentage phytotoxicity, AVEFA (Avena fatua (AVEFA); [11]) [%] | other results
1 | Cc1cc(C)c(C2C(=O)C[C@@H](CCNC(=O)c3cc(Cl)ccn3)C2=O)c(C)c1 (stereo partly drawn) [Compound A127] | 0 | 0 | 83 | 8 | 0 | 0 | 65 | 5 | 0 | 0 | 85 | 5 | 48 | 63 | 78 | 68 | 55 | 80 | 85 | 90 | Post-emergence herbicidal activity, percentage phytotoxicity, POAAN (Poa annua (POAAN); [8]): 0%; Post-emergence herbicidal activity, percentage phytotoxicity, POAAN (Poa annua (POAAN); [9]): 0%; Post-emergence herbicidal activity, percentage phytotoxicity, POAAN (Poa annua (POAAN); [10]): 0%; Post-emergence herbicidal activity, percentage phytotoxicity, POAAN (Poa annua (POAAN); [11]): 0%; Post-emergence herbicidal activity, percentage phytotoxicity, SETVI (Setaria viridis (SETVI); [8]): 97%; Post-emergence herbicidal activity, percentage phytotoxicity, SETVI (Setaria viridis (SETVI); [9]): 99%; Post-emergence herbicidal activity, percentage phytotoxicity, SETVI (Setaria viridis (SETVI); [10]): 100%; Post-emergence herbicidal activity, percentage phytotoxicity, SETVI (Setaria viridis (SETVI); [11]): 100%; Post-emergence herbicidal activity, percentage phytotoxicity, LOLMU [3, 8]: 65%; Post-emergence herbicidal activity, percentage phytotoxicity, LOLMU [3, 9]: 83%; Post-emergence herbicidal activity, percentage phytotoxicity, LOLMU [3, 10]: 97%; Post-emergence herbicidal activity, percentage phytotoxicity, LOLMU [3, 11]: 83%; Percentage Phytotoxicity Spring Wheat “Freya” (Spring Wheat “Freya”; [4]): 0%; Percentage Phytotoxicity Spring Wheat “Freya” (Spring Wheat “Freya”; [5]): 3%; Percentage Phytotoxicity Spring Wheat “Freya” (Spring Wheat “Freya”; [6]): 70%; Percentage Phytotoxicity Spring Wheat “Freya” (Spring Wheat “Freya”; [7]): 5%
2 | Cc1cc(C)c(C2C(=O)C[C@H](CCNC(=O)c3cccc(F)n3)C2=O)c(C)c1 (stereo partly drawn) [Compound A113] | 0 | 0 | 33 | 8 | 0 | 0 | 3 | 0 | 0 | 0 | 28 | 0 | 0 | 18 | 20 | 25 | 1 | 3 | 5 | 3 | Post-emergence herbicidal activity, percentage phytotoxicity, POAAN (Poa annua (POAAN); [8]): 0%; Post-emergence herbicidal activity, percentage phytotoxicity, POAAN (Poa annua (POAAN); [9]): 0%; Post-emergence herbicidal activity, percentage phytotoxicity, POAAN (Poa annua (POAAN); [10]): 8%; Post-emergence herbicidal activity, percentage phytotoxicity, POAAN (Poa annua (POAAN); [11]): 0%; Post-emergence herbicidal activity, percentage phytotoxicity, SETVI (Setaria viridis (SETVI); [8]): 5%; Post-emergence herbicidal activity, percentage phytotoxicity, SETVI (Setaria viridis (SETVI); [9]): 40%; Post-emergence herbicidal activity, percentage phytotoxicity, SETVI (Setaria viridis (SETVI); [10]): 53%; Post-emergence herbicidal activity, percentage phytotoxicity, SETVI (Setaria viridis (SETVI); [11]): 55%; Post-emergence herbicidal activity, percentage phytotoxicity, LOLMU [3, 8]: 3%; Post-emergence herbicidal activity, percentage phytotoxicity, LOLMU [3, 9]: 20%; Post-emergence herbicidal activity, percentage phytotoxicity, LOLMU [3, 10]: 45%; Post-emergence herbicidal activity, percentage phytotoxicity, LOLMU [3, 11]: 23%; Percentage Phytotoxicity Spring Wheat “Freya” (Spring Wheat “Freya”; [4]): 3%; Percentage Phytotoxicity Spring Wheat “Freya” (Spring Wheat “Freya”; [5]): 0%; Percentage Phytotoxicity Spring Wheat “Freya” (Spring Wheat “Freya”; [6]): 7%; Percentage Phytotoxicity Spring Wheat “Freya” (Spring Wheat “Freya”; [7]): 0%
3 | Cc1cc(C)c(C2C(=O)C[C@H](CCNC(=O)c3cc(Cl)ccn3)C2=O)c(C)c1 (stereo partly drawn) [Compound A128] | 0 | 0 | 48 | 0 | 0 | 0 | 8 | 0 | 0 | 0 | 18 | 0 | 3 | 25 | 48 | 35 | 0 | 3 | 18 | 10 | Post-emergence herbicidal activity, percentage phytotoxicity, POAAN (Poa annua (POAAN); [8]): 0%; Post-emergence herbicidal activity, percentage phytotoxicity, POAAN (Poa annua (POAAN); [9]): 0%; Post-emergence herbicidal activity, percentage phytotoxicity, POAAN (Poa annua (POAAN); [10]): 5%; Post-emergence herbicidal activity, percentage phytotoxicity, POAAN (Poa annua (POAAN); [11]): 0%; Post-emergence herbicidal activity, percentage phytotoxicity, SETVI (Setaria viridis (SETVI); [8]): 23%; Post-emergence herbicidal activity, percentage phytotoxicity, SETVI (Setaria viridis (SETVI); [9]): 43%; Post-emergence herbicidal activity, percentage phytotoxicity, SETVI (Setaria viridis (SETVI); [10]): 55%; Post-emergence herbicidal activity, percentage phytotoxicity, SETVI (Setaria viridis (SETVI); [11]): 63%; Post-emergence herbicidal activity, percentage phytotoxicity, LOLMU [3, 8]: 43%; Post-emergence herbicidal activity, percentage phytotoxicity, LOLMU [3, 9]: 63%; Post-emergence herbicidal activity, percentage phytotoxicity, LOLMU [3, 10]: 85%; Post-emergence herbicidal activity, percentage phytotoxicity, LOLMU [3, 11]: 78%; Percentage Phytotoxicity Spring Wheat “Freya” (Spring Wheat “Freya”; [4]): 3%; Percentage Phytotoxicity Spring Wheat “Freya” (Spring Wheat “Freya”; [5]): 0%; Percentage Phytotoxicity Spring Wheat “Freya” (Spring Wheat “Freya”; [6]): 7%; Percentage Phytotoxicity Spring Wheat “Freya” (Spring Wheat “Freya”; [7]): 3%
